Structures are written as SMILES.

In the case of `*C(=C(*)c1ccc([Si](c2ccccc2)(c2ccccc2)c2ccccc2)cc1)c1ccccc1` (repeat unit), the CH4 permeability turned out to be 5.58 Barrer, the CO2 permeability is 78.8 Barrer, the H2 permeability came out at 51.7 Barrer and the N2 permeability is 2.78 Barrer. In addition, the O2 permeability was 12.1 Barrer.
For `*C(=C(*)c1ccc2c(c1)C(C)(C)CC2(C)C)c1cc(F)cc(F)c1` (repeat unit) the same measures were 29100 Barrer, 36100 Barrer, 28500 Barrer, 13100 Barrer and 15200 Barrer.
As for `*C(=C(*)c1ccc2c(c1)C(C)(C)CC2(C)C)c1ccc(Br)cc1` (repeat unit), the CH4 permeability came to 22400 Barrer, the CO2 permeability is 32800 Barrer, the H2 permeability is 20700 Barrer and the N2 permeability worked out at 9200 Barrer. Moreover, the O2 permeability came out at 11400 Barrer.
For `*Oc1ccc(C(c2ccc(Oc3ccc(C(=O)c4ccc(C(c5ccc(C(=O)c6ccc(*)cc6)cc5)(C(F)(F)F)C(F)(F)F)cc4)cc3)cc2)(C(F)(F)F)C(F)(F)F)cc1` (repeat unit) the same measures were 0.477 Barrer, 11.5 Barrer, 31.4 Barrer, 0.76 Barrer and 3.7 Barrer.
`*Oc1ccc(C2(c3ccc(Oc4ccc(S(=O)(=O)c5ccc(*)cc5)cc4)c(C)c3)OC(=O)c3ccccc32)cc1C` (repeat unit) returned a CH4 permeability of 0.0727 Barrer, a CO2 permeability of 3.12 Barrer, an H2 permeability of 10.8 Barrer and an N2 permeability of 0.11 Barrer. The molecule also came in with an O2 permeability of 0.868 Barrer.
For `*Oc1ccc(C23CC4CC(C2)CC(c2ccc(Oc5ccc(S(=O)(=O)c6ccc(*)cc6)cc5)cc2)(C4)C3)cc1` (repeat unit) the same measures were 0.396 Barrer, 9.5 Barrer, 27.8 Barrer, 0.455 Barrer and 2.55 Barrer.
With `*Oc1ccc(Cc2ccc(Oc3c(F)c(F)c(COC(C4CCCC(C(OCc5c(F)c(F)c(*)c(F)c5F)(C(F)(F)F)C(F)(F)F)C4)(C(F)(F)F)C(F)(F)F)c(F)c3F)cc2)cc1` (repeat unit), the CH4 permeability came to 0.33 Barrer, the CO2 permeability was 7.6 Barrer, the H2 permeability came to 18 Barrer and the N2 permeability came to 0.55 Barrer. Further, the O2 permeability is 2.3 Barrer.
For `*Oc1ccc(N2C(=O)CCC23CCC(=O)N3c2ccc(Oc3c(F)c(F)c(COC(C4CCCC(C(OCc5c(F)c(F)c(*)c(F)c5F)(C(F)(F)F)C(F)(F)F)C4)(C(F)(F)F)C(F)(F)F)c(F)c3F)cc2)cc1` (repeat unit) the same measures were 0.25 Barrer, 7.1 Barrer, 21 Barrer, 0.46 Barrer and 2.2 Barrer.
On to `*Oc1ccc(S(=O)(=O)c2ccc(Oc3c(C)cc(-c4cc(C)c(*)c(C)c4C)c(C)c3C)cc2)cc1` (repeat unit), for which the CH4 permeability was 0.944 Barrer, the CO2 permeability is 25.5 Barrer, the N2 permeability came to 1.2 Barrer and the O2 permeability is 6 Barrer.
In turn, `*Oc1ccc(S(=O)(=O)c2ccc(Oc3c(C)cc(C(c4cc(C)c(*)c(C)c4)(C(F)(F)F)C(F)(F)F)cc3C)cc2)cc1` (repeat unit) returned a CH4 permeability of 1.61 Barrer, a CO2 permeability of 72 Barrer, an H2 permeability of 70.7 Barrer and an N2 permeability of 4 Barrer. The O2 permeability stood at 18 Barrer.
For `*Oc1ccc(S(=O)(=O)c2ccc(Oc3c(C)cc(Cc4cc(C)c(*)c(C)c4)cc3C)cc2)cc1` (repeat unit) the same measures were 0.577 Barrer, 15 Barrer, 34.5 Barrer, 0.611 Barrer and 3.3 Barrer.
In turn, `*Oc1ccc(S(=O)(=O)c2ccc(Oc3ccc(C(C)(C)c4ccc(*)cc4)cc3)cc2)cc1` (repeat unit) registered a CH4 permeability of 0.258 Barrer, a CO2 permeability of 5.6 Barrer, an H2 permeability of 14 Barrer and an N2 permeability of 0.249 Barrer. The molecule further came in with an O2 permeability of 1.4 Barrer.
The molecule `*Oc1ccc(S(=O)(=O)c2ccc(Oc3ccc(C(c4ccc(*)cc4)(C(F)(F)F)C(F)(F)F)cc3)cc2)cc1` (repeat unit) yielded a CH4 permeability of 0.345 Barrer, a CO2 permeability of 8.45 Barrer, an H2 permeability of 15.1 Barrer and an N2 permeability of 0.431 Barrer. The O2 permeability was found to be 2.33 Barrer.
`*Oc1ccc(S(=O)(=O)c2ccc(Oc3ccc(C4(c5ccc(*)c(C)c5)CCCCC4)cc3C)cc2)cc1` (repeat unit) showed a CH4 permeability of 0.0393 Barrer, a CO2 permeability of 1.4 Barrer, an N2 permeability of 0.0569 Barrer and an O2 permeability of 0.41 Barrer.
The molecule `*Oc1ccc(S(=O)(=O)c2ccc(Oc3ccc(Cc4ccc(*)cc4)cc3)cc2)cc1` (repeat unit) showed a CH4 permeability of 0.188 Barrer, a CO2 permeability of 4.5 Barrer, an N2 permeability of 0.2 Barrer and an O2 permeability of 1.1 Barrer.
In turn, `*Oc1ccc(S(=O)(=O)c2ccc(Oc3ccc(Oc4ccc(*)cc4)cc3)cc2)cc1` (repeat unit) returned a CH4 permeability of 0.179 Barrer, a CO2 permeability of 4.3 Barrer, an N2 permeability of 0.196 Barrer and an O2 permeability of 1.1 Barrer.
Take `*Oc1ccc(S(=O)(=O)c2ccc(Oc3ccc4cc(*)ccc4c3)cc2)cc1` (repeat unit): the CH4 permeability came to 0.0366 Barrer, the CO2 permeability was determined as 1.5 Barrer, the H2 permeability amounted to 7.25 Barrer and the N2 permeability was 0.0507 Barrer. This molecule also had an O2 permeability of 0.38 Barrer.
With `*Oc1ccc(S(=O)(=O)c2ccc(Oc3ccc4ccc(*)cc4c3)cc2)cc1` (repeat unit), the CH4 permeability was determined as 0.05 Barrer, the CO2 permeability was determined as 1.8 Barrer, the H2 permeability turned out to be 8.15 Barrer and the N2 permeability came out at 0.0735 Barrer. The O2 permeability turned out to be 0.5 Barrer.
Turning to `*Oc1ccc2c(c1)C1(CC2(C)C)CC(C)(C)c2ccc(OC(=O)c3ccc(C(*)=O)cc3)cc21` (repeat unit), the CH4 permeability came out at 4.22 Barrer, the CO2 permeability came to 55.7 Barrer, the N2 permeability is 2.98 Barrer and the O2 permeability turned out to be 13.4 Barrer.
`*Sc1ccc(*)cc1` (repeat unit) returned a CH4 permeability of 0.066 Barrer, a CO2 permeability of 1.6 Barrer, an N2 permeability of 0.046 Barrer and an O2 permeability of 0.19 Barrer.
Turning to `*c1c(C)c(C(=O)O)c(C)c(N2C(=O)c3ccc(C(c4ccc5c(c4)C(=O)N(*)C5=O)(C(F)(F)F)C(F)(F)F)cc3C2=O)c1C` (repeat unit), the CH4 permeability is 3.2 Barrer, the CO2 permeability is 144 Barrer, the H2 permeability turned out to be 193 Barrer and the N2 permeability was 5.52 Barrer. This molecule had an O2 permeability of 26.4 Barrer.
For `*c1c(C)c(C)c(-n2c(=O)c3cc4oc5cc6c(cc5oc4cc3c2=O)C2(CC(C)(C)c3cc4oc5cc7c(=O)n(*)c(=O)c7cc5oc4cc32)CC6(C)C)c(C)c1C` (repeat unit), in that order: 77 Barrer, 1100 Barrer, 530 Barrer, 47 Barrer and 150 Barrer.
For `*c1c(C)c(C)c(N2C(=O)c3ccc(Oc4c(C)ccc(C)c4Oc4ccc5c(c4)C(=O)N(*)C5=O)cc3C2=O)c(C)c1C` (repeat unit), in that order: 1.9 Barrer, 63 Barrer, 100 Barrer, 2.05 Barrer and 11 Barrer.
For `*c1c(C)c(C)c(N2C(=O)c3ccc(Oc4c(C)cccc4Oc4ccc5c(c4)C(=O)N(*)C5=O)cc3C2=O)c(C)c1C` (repeat unit) the same measures were 0.7 Barrer, 27 Barrer, 51 Barrer, 0.83 Barrer and 4.8 Barrer.
On to `*c1c(C)c(C)c(N2C(=O)c3ccc(Oc4cc(C(C)(C)C)cc(C)c4Oc4ccc5c(c4)C(=O)N(*)C5=O)cc3C2=O)c(C)c1C` (repeat unit), for which the CH4 permeability is 2.2 Barrer, the CO2 permeability was 67 Barrer, the H2 permeability was determined as 110 Barrer and the N2 permeability is 2.5 Barrer. This molecule yielded an O2 permeability of 13 Barrer.
With `*c1c(C)c(C)c(N2C(=O)c3ccc(Oc4cc(C(C)(C)C)ccc4Oc4ccc5c(c4)C(=O)N(*)C5=O)cc3C2=O)c(C)c1C` (repeat unit), the CH4 permeability turned out to be 3.1 Barrer, the CO2 permeability is 71 Barrer, the H2 permeability worked out at 91 Barrer and the N2 permeability worked out at 2.55 Barrer. The same molecule yielded an O2 permeability of 12 Barrer.
`*c1c(C)c(C)c(N2C(=O)c3ccc(Oc4cc(C)ccc4Oc4ccc5c(c4)C(=O)N(*)C5=O)cc3C2=O)c(C)c1C` (repeat unit) displayed a CH4 permeability of 0.47 Barrer, a CO2 permeability of 20 Barrer, an H2 permeability of 41 Barrer and an N2 permeability of 0.59 Barrer. The O2 permeability is 3.5 Barrer.
Turning to `*c1c(C)c2c(c(N3C(=O)c4ccc(C(c5ccc6c(c5)C(=O)N(*)C6=O)(C(F)(F)F)C(F)(F)F)cc4C3=O)c1C)C(C)(C)CC2` (repeat unit), the CH4 permeability came to 50.5 Barrer, the CO2 permeability was 692 Barrer, the N2 permeability turned out to be 58.6 Barrer and the O2 permeability was found to be 198 Barrer.
In the case of `*c1c(C)cc(-c2cc(C)c(-c3cc(C)c(*)c(C)c3)cc2C)cc1C` (repeat unit), the CH4 permeability is 15 Barrer, the CO2 permeability came out at 360 Barrer, the H2 permeability amounted to 350 Barrer and the N2 permeability was determined as 16.5 Barrer. The molecule also showed an O2 permeability of 67 Barrer.
For `*c1c(C)cc(-c2cc(C)c(-n3c(=O)c4cc5oc6cc7c(cc6oc5cc4c3=O)C3(CC(C)(C)c4cc5oc6cc8c(=O)n(*)c(=O)c8cc6oc5cc43)CC7(C)C)c3ccccc23)c2ccccc12` (repeat unit), in that order: 215 Barrer, 2980 Barrer, 1310 Barrer, 130 Barrer and 432 Barrer.

These data come from a polymer gas permeability compilation.
